From patent US20240325409A1, “Fused Heterotetracyclic Antiviral Agents” (Enanta Pharmaceuticals, Inc., priority 2023, published 2024)

System: HBV
Assay: HBV infection of HepG2-NTCP cells, HBeAg AlphaLISA readout
Assay type: cell-based
Conditions: Hepatitis B virus, 192 h, 2000 GE/cell, HBeAg in supernatant at day 8 post infection, 50% reduction relative to DMSO controls, read-out: Cellular EC50
Protocol: HepG2-NTCP A3 cells were maintained in DMEM media supplemented with GlutaMAX™, 10% fetal bovine serum, 1% penicillin/streptomycin, and 5 ug/mL puromycin at 37° C. in a humidified atmosphere with 5% CO2 in a collagen-coated tissue culture flask.
HepG2-NTCP cells were seeded in 384 well plate containing 16,000 cells/well two days prior to the infection. On the day of infection, compounds were 3-fold serially diluted in DMSO and pre-incubated with HepG2-NTCP cells for two hours before purified HBV addition. HBV infection was carried out at 2000 GE/cell with 4% PEG, and the final concentration of DMSO is 0.5%. On day one post infection, HBV-containing media was aspirated, cells were washed once with PBS and then maintained in 2.5% DMSO containing media for the remainder of the assay.
Supernatants from infected HepG2-NTCP cells were collected at day 8 post infection, and the amount of viral antigen HBeAg was measured by HBeAg AlphaLISA detection kit (PerkinElmer) following the manufacturer's recommended protocol. Irrespective of readout, compound concentrations that reduce viral product accumulation in supernatants by 50% relative to DMSO controls (EC50) are reported. EC50 ranges are as follows: A<0.1 µM; B 0.1-1 µM; C>1 µM.

EC50 [nM] | SMILES
100 to 1000 | CN1[C@H](C2CC2)CN(c2ccccc2)c2cc3c(cc2S1(=O)=O)-c1cc(C(=O)O)ccc1CO3 [Example 2, (R)-10-cyclopropyl-11-methyl-8-phenyl-8,9,10,11-tetrahydro-5H-benzo[3,4]chromeno[7,6-f][1,2,5]thiadiazepine-2-carboxylic acid 12,12-dioxide]
100 to 1000 | CN1[C@H](CC2CC2)CN(c2ccccc2)c2cc3c(cc2S1(=O)=O)-c1cc(C(=O)O)ccc1CO3 [Example 3]
< 100 | CC(C)C[C@@H]1CN(c2ccccc2)c2cc3c(cc2S(=O)(=O)N1C)-c1cc(C(=O)O)ccc1CO3 [Example 4, (R)-10-isobutyl-11-methyl-8-phenyl-8,9,10,11-tetrahydro-5H-benzo[3,4]chromeno[7,6-f][1,2,5]thiadiazepine-2-carboxylic acid 12,12-dioxide]
< 100 | CN1[C@H](CC(C)(C)C)CN(c2ccccc2)c2cc3c(cc2S1(=O)=O)-c1cc(C(=O)O)ccc1CO3 [Example 5]
100 to 1000 | CC(C)[C@@H]1CN(c2ccccc2)c2cc3c(cc2S(=O)(=O)N1C)-c1cc(C(=O)O)ccc1CO3 [Example 6]
< 100 | CCCC[C@@H]1CN(c2ccccc2)c2cc3c(cc2S(=O)(=O)N1C)-c1cc(C(=O)O)ccc1CO3 [Example 7, (R)-10-butyl-11-methyl-8-phenyl-8,9,10,11-tetrahydro-5H-benzo[3,4]chromeno[7,6-f][1,2,5]thiadiazepine-2-carboxylic acid 12,12-dioxide]
< 100 | CN1[C@H](C2CCCCC2)CN(c2ccccc2)c2cc3c(cc2S1(=O)=O)-c1cc(C(=O)O)ccc1CO3 [Example 8]
> 1000 | CCCC[C@@H]1CN(c2ccccc2)c2cc3c(cc2S(=O)(=O)N1C)-c1cccc(C(=O)O)c1CO3 [Example 9]
< 100 | CCCC[C@@H]1CN(c2ccccc2)c2cc3c(cc2S(=O)(=O)N1C)-c1cc(C(=O)O)c(F)cc1CO3 [Example 10, (R)-10-butyl-3-fluoro-11-methyl-8-phenyl-8,9,10,11-tetrahydro-5H-benzo[3,4]chromeno[7,6-f][1,2,5]thiadiazepine-2-carboxylic acid 12,12-dioxide]
> 1000 | CCCC[C@@H]1CN(c2ccccc2)c2cc3c(cc2S(=O)(=O)N1C)-c1nc(C(=O)O)ccc1CO3 [Example 11, (R)-10-butyl-11-methyl-8-phenyl-8,9,10,11-tetrahydro-5H-pyrido[3′,2′:3,4]chromeno[7,6-f][1,2,5]thiadiazepine-2-carboxylic acid 12,12-dioxide]
< 100 | CC(C)C[C@@H]1CN(c2ccccc2)c2cc3c(cc2S(=O)(=O)N1C)-c1cc(C(=O)O)c(F)c(F)c1CO3 [Example 12, (R)-3,4-difluoro-10-isobutyl-11-methyl-8-phenyl-8,9,10,11-tetrahydro-5H-benzo[3,4]chromeno[7,6-f][1,2,5]thiadiazepine-2-carboxylic acid 12,12-dioxide]
< 100 | CN1[C@H](C2CCC2)CN(c2ccccc2)c2cc3c(cc2S1(=O)=O)-c1cc(C(=O)O)c(F)c(F)c1CO3 [Example 13]
< 100 | CN1[C@H](C2CCCCC2)CN(c2ccccc2)c2cc3c(cc2S1(=O)=O)-c1cc(C(=O)O)c(F)c(F)c1CO3 [Example 14]
< 100 | CCCC[C@@H]1CN(c2ccccc2)c2cc3c(cc2S(=O)(=O)N1C)-c1cc(C(=O)O)sc1CO3 [Example 15, (R)-9-butyl-10-methyl-7-phenyl-7,8,9,10-tetrahydro-4H-thieno[2′,3′:3,4]chromeno[7,6-f][1,2,5]thiadiazepine-2-carboxylic acid 11,11-dioxide]
< 100 | CN1[C@H](C2CCC2)CN(c2ccccc2)c2cc3c(cc2S1(=O)=O)-c1cc(C(=O)O)sc1CO3 [Example 16]
< 100 | CCCC[C@@H]1CN(c2ccccc2)c2cc3c(cc2S(=O)(=O)N1C)-c1cc(C(=O)O)c(F)c(F)c1CO3 [Example 17]
< 100 | CC(C)C[C@@H]1CN(c2ccccc2)c2cc3c(cc2S(=O)(=O)N1C)-c1cc(C(=O)O)sc1CO3 [Example 18, (R)-9-isobutyl-10-methyl-7-phenyl-7,8,9,10-tetrahydro-4H-thieno[2′,3′:3,4]chromeno[7,6-f][1,2,5]thiadiazepine-2-carboxylic acid 11,11-dioxide]

EC50 [nM] | SMILES
< 100 | CN1[C@H](C2CCCCC2)CN(c2ccccc2)c2cc3c(cc2S1(=O)=O)-c1cc(C(=O)O)sc1CO3 [Example 19]
100 to 1000 | CCCC[C@@H]1CN(c2ccccc2)c2cc3c(cc2S(=O)(=O)N1C)-c1cc(C(=O)O)ccc1[C@H](C(F)(F)F)O3 [Example 21a, (5R,10R)-10-butyl-11-methyl-8-phenyl-5-(trifluoromethyl)-8,9,10,11-tetrahydro-5H-benzo[3,4]chromeno[7,6-f][1,2,5]thiadiazepine-2-carboxylic acid 12,12-dioxide]
100 to 1000 | CCCC[C@@H]1CN(c2ccccc2)c2cc3c(cc2S(=O)(=O)N1C)-c1cc(C(=O)O)ccc1[C@@H](C(F)(F)F)O3 [Example 21b, (5S,10R)-10-butyl-11-methyl-8-phenyl-5-(trifluoromethyl)-8,9,10,11-tetrahydro-5H-benzo[3,4]chromeno[7,6-f][1,2,5]thiadiazepine-2-carboxylic acid 12,12-dioxide]
> 1000 | CCCC[C@@H]1CN(c2ccccc2)c2cc3c(cc2S(=O)(=O)N1C)-c1cc(C(=O)O)ccc1[C@H](C(C)(C)C)O3 [Example 22a, (5S,10R)-5-(tert-butyl)-10-butyl-11-methyl-8-phenyl-8,9,10,11-tetrahydro-5H-benzo[3,4]chromeno[7,6-f][1,2,5]thiadiazepine-2-carboxylic acid 12,12-dioxide]
> 1000 | CCCC[C@@H]1CN(c2ccccc2)c2cc3c(cc2S(=O)(=O)N1C)-c1cc(C(=O)O)ccc1[C@@H](C(C)(C)C)O3 [Example 22b, (5R,10R)-5-(tert-butyl)-10-butyl-11-methyl-8-phenyl-8,9,10,11-tetrahydro-5H-benzo[3,4]chromeno[7,6-f][1,2,5]thiadiazepine-2-carboxylic acid 12,12-dioxide]
100 to 1000 | CCCC[C@@H]1CN(c2ccccc2)c2cc3c(cc2S(=O)(=O)N1C)-c1cc(C(=O)O)ccc1C(C)(C)O3 [Example 23, (R)-10-butyl-5,5,11-trimethyl-8-phenyl-8,9,10,11-tetrahydro-5H-benzo[3,4]chromeno[7,6-f][1,2,5]thiadiazepine-2-carboxylic acid 12,12-dioxide]
100 to 1000 | CCCCC1CN(c2ccccc2)c2cc3c(cc2S(=O)(=O)N1C)-c1cc(C(=O)O)ccc1OC3 (stereo not drawn) [Example 24, 10-butyl-11-methyl-8-phenyl-8,9,10,11-tetrahydro-6H-benzo[3,4]isochromeno[7,6-f][1,2,5]thiadiazepine-2-carboxylic acid 12,12-dioxide]
> 1000 | CN1[C@H](C2CCCCC2)CNc2cc3c(cc2S1(=O)=O)-c1cc(C(=O)O)ccc1CO3 [Example 25, (R)-10-cyclohexyl-11-methyl-8,9,10,11-tetrahydro-5H-benzo[3,4]chromeno[7,6-f][1,2,5]thiadiazepine-2-carboxylic acid 12,12-dioxide]
< 100 | CCCC[C@@H]1CN(c2ccccc2)c2cc3c(cc2S(=O)(=O)N1C)-c1cc(C(=O)O)ccc1CN3C [Example 27, (R)-10-butyl-6,11-dimethyl-8-phenyl-5,6,8,9,10,11-hexahydro-[1,2,5]thiadiazepino[7,6-b]phenanthridine-2-carboxylic acid 12,12-dioxide]
100 to 1000 | CCCC[C@@H]1CN(c2ccccc2)c2cc3c(cc2S(=O)(=O)N1C)-c1cc(C(=O)O)ccc1CN3C(C)C [Example 28]
100 to 1000 | CCCC[C@@H]1CN(c2ccccc2)c2cc3c(cc2S(=O)(=O)N1C)-c1cc(C(=O)O)ccc1CN3 [Example 29]
> 1000 | CN1[C@H](C2CCCCC2)CN(c2ccccc2)c2cc3c(cc2S1(=O)=O)-c1cc(C(=O)O)ccc1CN3c1ccccc1F [Example 30]
> 1000 | CN1Cc2ccc(C(=O)O)cc2-c2cc3c(cc21)NC[C@@H](C1CCCCC1)N(C)S3(=O)=O [Example 31, (R)-10-cyclohexyl-6,11-dimethyl-5,6,8,9,10,11-hexahydro-[1,2,5]thiadiazepino[7,6-b]phenanthridine-2-carboxylic acid 12,12-dioxide]
100 to 1000 | CN1[C@H](C2CCCCC2)CNc2cc3c(cc2S1(=O)=O)-c1cc(C(=O)O)ccc1CN3c1ccccc1F [Example 32]
> 1000 | CCCC[C@@H]1CN(c2ccccc2)c2cc3c(cc2S(=O)(=O)N1C)-c1cc(C(=O)O)ccc1C1(CC1)N3 [Example 33, (R)-10′-butyl-11′-methyl-8′-phenyl-8′,9′,10′,11′-tetrahydro-6′H-spiro[cyclopropane-1,5′-[1,2,5]thiadiazepino[7,6-b]phenanthridine]-2′-carboxylic acid 12′,12′-dioxide]
100 to 1000 | CCCC[C@@H]1CN(c2ccccc2)c2cc3oc4ccc(C(=O)O)cc4c3cc2S(=O)(=O)N1C [Example 34, (R)-3-butyl-2-methyl-5-phenyl-2,3,4,5-tetrahydrobenzo[2,3]benzofuro[6,5-f][1,2,5]thiadiazepine-10-carboxylic acid 1,1-dioxide]
